IC50 and Kd data for 20 compounds are collected here from patent EP4206196A1, “PYRIMIDINE SUBSTITUTED DERIVATIVES AS TYK2 INHIBITORS” (Almirall S.A., priority 2021, dated 2023).

Assay [1] deals with STAT1/3 through TYK2/JAK1. Nature of the assay: IFNa induced STAT phosphorylation in HEK293 cells (SIE-bla reporter gene). Conditions: Homo sapiens, HEK293; HEK293T-sie-bla cells, IFNa at EC80, 4 hours; read-out: Inhibition of IFNa induced STAT phosphorylation HEK293 cells IC50. In kind it is cell-based. Put shortly: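 Read-out was FRET from a β-lactamase reporter under a SIE promoter in HEK293T cells, with substrate added after a 4 h, 37°C co-incubation of compound and EC80 IFNa and left overnight in the dark. Compounds ran as 10-point 1/5 dilutions at 0.1% final DMSO; four-parameter log fit gave IC50.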

In assay [2] the target is T1, TYK2 (JH2domain-pseudokinase) (Homo sapiens, UniProt P29597).
T1 construct: TYK2 (JH2domain-pseudokinase)-tagged T7 phage strains were prepared in an E. coli host derived from the BL21 strain; made in house; host or cells: E. coli BL21-derived host (T7 phage) or HEK-293 cells
Nature of the assay: TYK2 JH2 domain binding assay (KINOMEscan). The method, boiled down: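 Kd values come from nonlinear least-squares fits of 11-point 3-fold dilutions (mostly 30,000 nM top, lowered when Kd fell below 0.5 nM). Test compound competed with bead-bound biotinylated ligand for qPCR-tagged TYK2 pseudokinase (JH2) domain, shaken 1 h at room temperature, with about 1% final DMSO.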

Each structure is given as a SMILES string.

T1 sequence (P29597 589-875 limits assumed): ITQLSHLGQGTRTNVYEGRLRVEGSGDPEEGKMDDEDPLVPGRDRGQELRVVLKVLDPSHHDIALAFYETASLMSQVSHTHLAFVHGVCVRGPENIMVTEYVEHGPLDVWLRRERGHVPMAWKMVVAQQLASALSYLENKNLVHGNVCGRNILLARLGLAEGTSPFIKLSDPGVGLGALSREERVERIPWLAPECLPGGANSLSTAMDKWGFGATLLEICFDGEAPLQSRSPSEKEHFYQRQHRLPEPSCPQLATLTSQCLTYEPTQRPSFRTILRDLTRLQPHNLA

The IC50 is the concentration that inhibits the measured activity by half. The term Kd denotes the constant that tells how readily two partners part at equilibrium. A higher Kd goes with lower affinity. With `Cc1cc(Nc2cc(Nc3ccccc3N(C)S(C)(=O)=O)ncn2)ncc1F` [Example 101, N-[2-[[6-[(5-fluoro-4-methyl-2-pyridyl)amino]pyrimidin-4-yl]amino]phenyl]-N-methyl-methanesulfonamide], in assay [1], the half-inhibitory concentration (IC50) is 0.01 to 0.1 µM. In addition, the Kd in assay [2] was less than 0.0002 µM.

Turning to `CN(c1ccccc1Nc1cc(Nc2ccc(C#N)cn2)ncn1)S(C)(=O)=O` [Example 102, N-[2-[[6-[(5-cyano-2-pyridyl)amino]pyrimidin-4-yl]amino]phenyl]-N-methyl-methanesulfonamide], the IC50 in assay [1] fell in the range of 0.01 to 0.1 µM. Also, the Kd in assay [2] lay in the range of 0.0002 to 0.001 µM.

Take `COc1c(Nc2cc(Nc3cc(C)ncn3)ncn2)cc(C)cc1-c1ncn(C)n1` [Example 104, 4-N-[2-methoxy-5-methyl-3-(1-methyl-1,2,4-triazol-3-yl)phenyl]-6-N-(6-methylpyrimidin-4-yl)pyrimidine-4,6-diamine]: in assay [1], the IC50 was in the range of 0.1 to 1 µM. For the same compound, in assay [2], the Kd lay within 0.0002 to 0.001 µM.

Regarding `Cc1cc(Nc2cc(Nc3ccc(C4CCCOC4)cc3N(C)S(C)(=O)=O)ncn2)nc(C)n1` (stereo not shown) [Example 105, N-[2-[[6-[(2,6-dimethylpyrimidin-4-yl)amino]pyrimidin-4-yl]amino]-5-tetrahydropyran-3-yl-phenyl]-N-methyl-methanesulfonamide], the concentration for half-maximal inhibition (IC50) in assay [1] is less than 0.01 µM. The Kd in assay [2] was less than 0.0002 µM.

With `Cc1cc(Nc2cc(Nc3ccc(C4CCOCC4)cc3N(C)S(C)(=O)=O)ncn2)nc(C)n1` [Example 106, N-[2-[[6-[(2,6-dimethylpyrimidin-4-yl)amino]pyrimidin-4-yl]amino]-5-tetrahydropyran-4-yl-phenyl]-N-methyl-methanesulfonamide], the IC50 in assay [1] was 0.01 to 0.1 µM. The compound also registered a Kd in assay [2] of less than 0.0002 µM.

For the compound `Cc1cc(Nc2cc(Nc3ccc(C4CCCCO4)cc3N(C)S(C)(=O)=O)ncn2)nc(C)n1` (stereo not shown) [Example 107, N-[2-[[6-[(2,6-dimethylpyrimidin-4-yl)amino]pyrimidin-4-yl]amino]-5-tetrahydropyran-2-yl-phenyl]-N-methyl-methanesulfonamide], the IC50 in assay [1] was less than 0.01 µM. Also, the Kd in assay [2] is less than 0.0002 µM.

On to `C=Cc1ccc(Nc2cc(Nc3cc(C)nc(C)n3)ncn2)c(N(C)S(C)(=O)=O)c1` [Example 108, N-[2-[[6-[(2,6-dimethylpyrimidin-4-yl)amino]pyrimidin-4-yl]amino]-5-vinyl-phenyl]-N-methyl-methanesulfonamide], for which the IC50 in assay [1] was less than 0.01 µM. The same compound displayed a Kd in assay [2] of less than 0.0002 µM.

In the case of `Cc1cc(Nc2cc(Nc3ccc(Cc4ccccc4)cc3N(C)S(C)(=O)=O)ncn2)nc(C)n1` [Example 109, N-[5-benzyl-2-[[6-[(2,6-dimethylpyrimidin-4-yl)amino]pyrimidin-4-yl]amino]phenyl]-N-methyl-methanesulfonamide], the half-inhibitory concentration (IC50) in assay [1] was less than 0.01 µM. In assay [2], this compound gave a dissociation constant Kd of less than 0.0002 µM.

Consider `Cc1cc(Nc2cc(Nc3ccc(C4CCNC4)cc3N(C)S(C)(=O)=O)ncn2)nc(C)n1` (stereo not shown) [Example 110, N-[2-[[6-[(2,6-dimethylpyrimidin-4-yl)amino]pyrimidin-4-yl]amino]-5-pyrrolidin-3-yl-phenyl]-N-methyl-methanesulfonamide], for which, in assay [1], the IC50 lay in the range of 0.1 to 1 µM. The compound also came in with a dissociation constant (Kd) in assay [2] of 0.001 to 0.01 µM.

`Cc1cc(Nc2cc(Nc3ccc(C4CCOC4)cc3N(C)S(C)(=O)=O)ncn2)nc(C)n1` (stereo not shown) [Example 111, N-[2-[[6-[(2,6-dimethylpyrimidin-4-yl)amino]pyrimidin-4-yl]amino]-5-tetrahydrofuran-3-yl-phenyl]-N-methyl-methanesulfonamide]: the IC50 in assay [1] is 0.01 to 0.1 µM. This compound returned a Kd in assay [2] of less than 0.0002 µM.

For `CN=S(C)(=O)c1ccccc1Nc1cc(Nc2cc(C)nc(C)n2)ncn1` (stereo not shown) [Example 112, N6-(2,6-dimethylpyrimidin-4-yl)-N4-[2-(N,S-dimethylsulfonimidoyl)phenyl]pyrimidine-4,6-diamine], the IC50 in assay [1] was 0.01 to 0.1 µM. Besides, in assay [2], the dissociation constant Kd is less than 0.0002 µM.

With `CN=S(C)(=O)c1cc(-c2cnn(C)c2C)ccc1Nc1cc(Nc2cc(C)nc(C)n2)ncn1` (stereo not shown) [Example 113, N4-[4-(1,5-dimethylpyrazol-4-yl)-2-(N,S-dimethylsulfonimidoyl)phenyl]-N6-(2,6-dimethylpyrimidin-4-yl)pyrimidine-4,6-diamine], the concentration for half-maximal inhibition (IC50) in assay [1] is less than 0.01 µM. Moreover, the Kd in assay [2] is less than 0.0002 µM.

Turning to `Cc1cc(Nc2cc(Nc3ccc(C4CCCO4)cc3N(C)S(C)(=O)=O)ncn2)nc(C)n1` (stereo not shown) [Example 114, N-[2-[[6-[(2,6-dimethylpyrimidin-4-yl)amino]pyrimidin-4-yl]amino]-5-tetrahydrofuran-2-yl-phenyl]-N-methyl-methanesulfonamide], the IC50 in assay [1] is less than 0.01 µM. In addition, the Kd in assay [2] is less than 0.0002 µM.

On to `COCc1ccc(Nc2cc(Nc3cc(C)nc(C)n3)ncn2)c(N(C)S(C)(=O)=O)c1` [Example 115, N-[2-[[6-[(2,6-dimethylpyrimidin-4-yl)amino]pyrimidin-4-yl]amino]-5-(methoxymethyl)phenyl]-N-methyl-methanesulfonamide], for which the half-maximal inhibitory concentration (IC50) in assay [1] was less than 0.01 µM. Besides, in assay [2], the Kd is less than 0.0002 µM.

Consider `CN=S(C)(=O)c1c(C)cccc1Nc1cc(Nc2cc(C)nc(C)n2)ncn1` (stereo not shown) [Example 116, N6-(2,6-dimethylpyrimidin-4-yl)-N4-[2-(N,S-dimethylsulfonimidoyl)-3-methyl-phenyl]pyrimidine-4,6-diamine], for which the IC50 in assay [1] lay in the range of 0.01 to 0.1 µM. Moreover, the dissociation constant (Kd) in assay [2] is 0.0002 to 0.001 µM.

Consider `COc1cc(C2CCOC2)ccc1Nc1cc(Nc2cc(C)nc(C)n2)ncn1` (stereo not shown) [Example 117, N4-(2,6-dimethylpyrimidin-4-yl)-N6-(2-methoxy-4-tetrahydrofuran-3-yl-phenyl)pyrimidine-4,6-diamine], for which, in assay [1], the IC50 was greater than 1 µM. The compound also returned a dissociation constant (Kd) in assay [2] of 0.001 to 0.01 µM.

Turning to `Cc1cc(Nc2cc(Nc3ncccc3N(C)S(C)(=O)=O)ncn2)nc(C)n1` [Example 120, N-[2-[[6-[(2,6-dimethylpyrimidin-4-yl)amino]pyrimidin-4-yl]amino]-3-pyridyl]-N-methyl-methanesulfonamide], the IC50 in assay [1] lay within 0.01 to 0.1 µM. The compound also had a dissociation constant (Kd) in assay [2] of less than 0.0002 µM.

As to `[2H]C([2H])([2H])N(c1cccnc1Nc1cc(Nc2cc(C)nc(C)n2)ncn1)S(C)(=O)=O` [Example 121, N-[2-[[6-[(2,6-dimethylpyrimidin-4-yl)amino]pyrimidin-4-yl]amino]-3-pyridyl]-N-(trideuteriomethyl)methanesulfonamide], the 50% inhibitory concentration (IC50) in assay [1] is 0.01 to 0.1 µM. Moreover, in assay [2], the dissociation constant Kd was less than 0.0002 µM.

On to `Cc1cc(Nc2cc(Nc3ncc(-c4nc(C(F)(F)F)n(C)n4)cc3N(C)S(C)(=O)=O)ncn2)nc(C)n1` [Example 122, N-[2-[[6-[(2,6-dimethylpyrimidin-4-yl)amino]pyrimidin-4-yl]amino]-5-[1-methyl-5-(trifluoromethyl)-1,2,4-triazol-3-yl]-3-pyridyl]-N-methyl-methanesulfonamide], for which, in assay [1], the half-maximal inhibitory concentration (IC50) lay within 0.01 to 0.1 µM. In assay [2], this compound gave a Kd of less than 0.0002 µM.

On to `Cc1cc(Nc2cc(Nc3ncc(-c4ncn(C)n4)cc3N(C)S(C)(=O)=O)ncn2)nc(C)n1` [Example 123, N-[2-[[6-[(2,6-dimethylpyrimidin-4-yl)amino]pyrimidin-4-yl]amino]-5-(1-methyl-1,2,4-triazol-3-yl)-3-pyridyl]-N-methyl-methanesulfonamide], for which, in assay [1], the IC50 was 0.01 to 0.1 µM. Further, the Kd in assay [2] lay in the range of 0.001 to 0.01 µM.
